From patent US4965280A, “Antifungal carbinols” (E. I. Du Pont de Nemours and Company, priority 1989, dated 1990)

How the values were obtained:
[1] = system: SCIRPUS; experiment: Test C rice paddy; type: in vivo, Scirpus paludosus; conditions: Bolboschoenus maritimus, 504 h, 21 days, read-out: plant response
Outline: (§1)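 In this flooded-paddy assay, rice and weeds grew in saturated silt loam under greenhouse conditions, and the test compound was dosed into the 3 cm standing water shortly after flooding.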

[2] = system: WATER PLAINTAIN; experiment: Test C rice paddy; type: in vivo, Alisma trivale; conditions: 504 h, 21 days, read-out: plant response
Outline: as §1

[3] = system: YELLOW NUTSEDGE; experiment: Test C rice paddy; type: in vivo, Cyperus esculentus; conditions: 21 days
Description: Sixteen cm diameter Airlite plastic pots were partially filled with Tama slit loam soil and the soil saturated with water. Japonica and Indica rice seedlings a the 2.0 to 2.5 leaf stage were transplanted into 1/3 of the pots. Into another third of the pots were transplanted seedling or sprouted tubers of water plantain (Alisma trivale), Scripus (Scirpus paludosus), Cyperus (Cyperus esculentus), and arrowhead (Sagittaria spp.). The remaining pots were planted with barnyardgrass (Echinochloa crusgalli) seeds and sprouted tubes of water chestnut (Eleocharis spp.). These weeds all represent major rice weeds or genera of weeds important in rice. Three to four days after planting, the water level was raised to 3 cm (about 1200 ml/pot) and maintained a this level throughout the test. Chemical treatments were applied directly to the paddy water, within 24 hours of raising the water, after being formulated in a nonphytotoxic solvent. The pots were maintained in the greenhouse.

[4] = system: CTCHWD BEDSTRAW; experiment: Test E; type: in vivo, Galium aparine; conditions: PREEMERGENCE 0250 GM/HA
[5] = system: WILD RADISH; experiment: Test E; type: in vivo, Raphanus raphanistrum; conditions: PREEMERGENCE 0250 GM/HA
[6] = system: PARK WHEAT; experiment: Test E; type: in vivo, Triticum aestivum cv. Park; conditions: PREEMERGENCE 0250 GM/HA
[7] = system: GREEN FOXTAIL; experiment: Test E; type: in vivo, Setaria viridis; conditions: PREEMERGENCE 0250 GM/HA
[8] = system: WATERCHESTNUT; experiment: Test C rice paddy; type: in vivo, Eleocharis spp.; conditions: Eleocharis, 504 h, 21 days, read-out: plant response
Outline: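 Greenhouse paddy pots of saturated silt loam received rice seedlings at the 2.0–2.5 leaf stage, transplanted weed seedlings or sprouted tubers, and barnyardgrass seed. After flooding to 3 cm at 3–4 days, solvent-formulated test chemical went straight into the water within 24 h.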

[9] = system: JET RAPE; experiment: Test E; type: in vivo, Brassica napus cv. Jet Neuf; conditions: PREEMERGENCE 0250 GM/HA
[10] = system: RICE INDICA EFF; experiment: Test C rice paddy; type: in vivo; conditions: Oryza sativa, 504 h, 21 days, read-out: plant response
Outline: as §1

## C=C(c1ccc(Cl)cc1Cl)C(O)(Cn1cncn1)c1ccccc1F (stereo not drawn) [Example 107]
[1]; 0064 G/HA
  pest or weed control at 64 g/ha: 0%
[1]; 0125 G/HA
  pest or weed control at 125 g/ha: 0%
[1]; 0250 G/HA
  pest or weed control at 250 g/ha: 60%
[1]; 0500 G/HA
  pest or weed control at 500 g/ha: 80%
[1]; 1000 G/HA
  pest or weed control at 1000 g/ha: 80%
[2]; 0064 G/HA
  pest or weed control at 64 g/ha: 0%
[2]; 0125 G/HA
  pest or weed control at 125 g/ha: 0%
[2]; 0250 G/HA
  pest or weed control at 250 g/ha: 0%
[2]; 0500 G/HA
  pest or weed control at 500 g/ha: 60%
[2]; 1000 G/HA
  pest or weed control at 1000 g/ha: 80%
[3]; 0064 G/HA
  plant response: 0
[3]; 0125 G/HA
  plant response: 0
[3]; 0250 G/HA
  plant response: 50
[3]; 0500 G/HA
  plant response: 30
[3]; 1000 G/HA
  plant response: 95
[4]
  plant response: 0%
[5]
  plant response: 60%
[6]
  plant response: 30%
[7]
  plant response: 100%
[8]; 0064 G/HA
  pest or weed control at 64 g/ha: 0%
[8]; 0125 G/HA
  pest or weed control at 125 g/ha: 0%
[8]; 0250 G/HA
  pest or weed control at 250 g/ha: 40%
[8]; 0500 G/HA
  pest or weed control at 500 g/ha: 60%
[8]; 1000 G/HA
  pest or weed control at 1000 g/ha: 30%
[9]
  plant response: 30%
[10]; 0064 G/HA
  pest or weed control at 64 g/ha: 0%
[10]; 0125 G/HA
  pest or weed control at 125 g/ha: 0%
[10]; 0250 G/HA
  pest or weed control at 250 g/ha: 30%
[10]; 0500 G/HA
  pest or weed control at 500 g/ha: 40%
[10]; 1000 G/HA
  pest or weed control at 1000 g/ha: 50%
